“And” between values parts separate entries of the source, which are not always exact repeats. Equal entries are not always repeated. Where two headings read alike, the source gives them in different places.
What was measured:
Skin sensitization test = conditions: in vivo
[1] = tested on: apoptotic cells in the retinal outer nuclear layer of RCS rats; parameters: method as in PMID 28085534; conditions: cited from earlier work
[2] = Unbound fraction by equilibrium dialysis, human plasma; assay type: in vitro ADME; conditions: 1 μM, equilibrium dialysis 37 °C 4 h
Procedure: (§1) An equilibrium dialysis apparatus, Rapid Equilibrium Dialysis (RED) Device Single-Use Plate with Inserts, 8K MWCO (ThermoFisher Scientific, Waltham, MA, USA), was used to determine the unbound fraction for each compound in human plasma, rat plasma, and medium containing 10% fetal bovine serum (FBS). Plasma or medium was mixed with the test compound (1 μM) and 200 μL aliquots were loaded into the apparatus and dialyzed versus 350 μL of 100 mM phosphate buffer (pH 7.4) at 37 °C for 4 h by rotation at 1000 rpm. The unbound fraction was calculated as the ratio of receiver side (buffer) to donor side (plasma) concentrations.

[3] = Acute systemic toxicity test; conditions: in vivo
[4] = tested on: human chromosomal aberration; assay: Human chromosomal aberration test; assay type: cell-based
[5] = PAMPA (parallel artificial membrane permeability assay); assay type: in vitro ADME; conditions: PAMPA, pH 6.5; 0.2 μM test compound, 37 °C, 4 h
Procedure: In order to determine the passive membrane diffusion rates, the Corning Gentest Pre-coated PAMPA Plate System was used in the PAMPA test. […] The acceptor plate was then placed on top of the donor plate and incubated at 37 °C without agitation for 4 h. At the end of the incubation, the plates were separated and the solutions from each well of both the acceptor plate and the donor plate were transferred to 96-well plates and mixed with acetonitrile. The final concentrations of compound in both the donor wells and acceptor wells, as well as the concentrations of the initial donor solutions, were analyzed by LC-MS/MS. The permeability of the compound was calculated according to the previous report.

[6] = tested on: chick retinal pigment epithelial cells; parameters: method as in PMID 18414992; conditions: 6.6 × 10^−5, 6.6 × 10^−6 and 6.6 × 10^−7 M, 4 h, dark or light 320 lux; cited from earlier work
[7] = Unbound fraction by equilibrium dialysis, medium containing 10% fetal bovine serum; assay type: in vitro ADME; conditions: 1 μM, equilibrium dialysis 37 °C 4 h
Procedure: as §1

[8] = In vivo pharmacokinetics, oral administration; parameters: species or system rat; conditions: for Kp at 8 h: eye ball / plasma, read-out: Eye Ball/Plasma Ratio(Kp); for bioavailability: oral, read-out: absolute bioavailability
Procedure: Male Sprague Dawley (SD) and Wistar rats (5-week old) were obtained from Charles River Laboratories Japan (Yokohama, Japan) and Japan SLC, Inc. (Hamamatsu, Japan), respectively. All animals were maintained in air-conditioned quarters with room temperatures of 20 ± 2 °C, relative humidity of 50 ± 10%, and an alternating 12 h light/dark cycle. The rats were fed a certified diet MF (Oriental Yeast Co., Tokyo, Japan) and water ad libitum. The studies were conducted in accordance with the guidelines provided by the Animal Care and Use Committee of Osaka University (Identifier DouyakuR01-3-1).
A test compound (NK-5962) solution in 50% DMSO/water was injected intravenously (i.v.) to male SD rats. A test compound suspension in 0.5% methyl cellulose was administered orally (p.o.) to male Wistar rats. The dosage of the test compound was 1 mg/2 mL/kg (i.v.) and 10 or 100 mg/10 mL/kg (p.o.). Blood samples were collected from the jugular vein at 5 and 15 min and 1 h (i.v.) by using pre-heparinized syringe after the intravenous administration or from the caudal vein at 15 and 30 min, 1, 2 and 4 h (p.o.) by using heparinized capillary tube after the oral administration. At 30 min and 2 h (i.v.) or 8 h (p.o.), blood samples were collected from the abdominal aorta under isoflurane anesthesia and the eye balls and the whole brain were excised immediately.
Plasma was prepared by centrifugation of the blood samples. Plasma and tissues were stored at −80 °C. The tissues were homogenized with a four-fold volume of phosphate-buffered saline to obtain a 20% tissue homogenate. Plasma and 20% tissue homogenates were precipitated with 4–20 volumes of acetonitrile/IS and centrifuged at 15,000× g at 4 °C for 10 min. The supernatants were analyzed by liquid chromatography and tandem mass spectrometry (LC-MS/MS). Standard non-compartmental analysis was performed to determine the pharmacokinetic parameters: elimination half-life (t1/2) and area under the concentration time curve from time zero to infinity (AUC∞). The absolute bioavailability (BA) of the oral dose was calculated as AUC∞ (p.o.)/AUC∞ (i.v.).
Liquid chromatography and tandem mass spectrometry instrument (LC-MS8060) equipped with Shimadzu Nexera series LC system (Shimadzu, Kyoto, Japan) were used. All compounds were analyzed in multi-reaction monitoring mode under electron spray ionization conditions. The analytical column used was a […] C18 MGIII (3 μm × 2.0 mmID × 35 mm; OSAKA SODA, Osaka, Japan) at 50 °C. The gradient mobile phase consisted of 0.1% formic acid in water (mobile phase A) and 0.1% formic acid in acetonitrile (mobile phase B) at a total flow rate of 1 mL/minute. The initial mobile phase composition was 10% B, which was held constant for 0.2 min, increased in a linear fashion to 90% B over 1 min, then held constant for 0.8 min, and then finally brought back to the initial condition of 10% B over 0.01 min and re-equilibrated for 1 min. The transitions (precursor ion > product ion) of NK-5962 and IS (methyl testosterone) are 433.2 > 279.2 and 303.1 > 109.1 (positive), respectively.

CCCCN(CCCC)c1ccc(C=Cc2sc3ccccc3[n+]2CC(=O)O)cc1.[Br-] [NK-5962, 2-[2-[4-(dibutylamino)phenyl]ethenyl]-3-carboxymethylbenzothiazolium bromide]
toxicity in the skin sensitization test (Skin sensitization test): not toxic
number of TUNEL-positive cells in the outer nuclear layer of the four retinal sites (a + b + c + d) ([1]; 1.6 μM NK-5962 intravitreous, saline 139): 85
number of TUNEL-positive cells in the outer nuclear layer of the four retinal sites (a + b + c + d) ([1]; 16 μM NK-5962 intravitreous, saline 129): 72
number of TUNEL-positive cells in the outer nuclear layer compared to saline-injected eyes ([1]; intravitreous 16 μM, constant dark condition, P = 0.0001): significantly less
TUNEL-positive cells in the outer nuclear layer compared to the saline-injected eyes ([1]; intravitreous 3 μL twice, 16 to 16 × 10^−2 μM, 12 h light/dark cycle): significantly less
Protein-Binding (Non-Binding Ratio) Human Plasma [2]: 0.028
acute systemic toxicity test [3]: not toxic
genetic toxicity, human chromosomal aberration test [4]: not toxic
Papp at 4 h, 0.2 μM [5]: 0.31 ×10⁻⁶ cm/s
percent cytotoxicity value [6]: negative in all groups
Protein-Binding (Non-Binding Ratio) 10% Fetal Bovine Serum [7]: 0.34
maximum plasma concentration after the oral administration ([8]; excluding the 8 h values suspected of contamination): 17 nM
maximum eye ball concentration expected after oral administration ([8]; from maximum plasma concentration and eye ball/plasma ratio 0.072): 1.3 nM
Kp at 8 h ([8]; male, Wistar, oral 10 mg/kg, single rat): < 0.059
Kp at 8 h ([8]; male, Wistar, oral 100 mg/kg, single rat): 0.072
concentration at 8 h ([8]; male, Wistar, rat, eye ball, po, 10 mg/kg, oral 10 mg/kg, single rat, read-out: Eye Ball Concentration): < 0.1 nM
concentration at 8 h ([8]; male, Wistar, rat, eye ball, po, 100 mg/kg, oral 100 mg/kg, single rat, read-out: Eye Ball Concentration): 0.33 nM
bioavailability ([8]; male, Wistar, rat, plasma, 10 mg/kg): < 1%
bioavailability ([8]; male, Wistar, rat, plasma, 100 mg/kg): < 1%
concentration at 0.25 h ([8]; male, Wistar, rat, plasma, po, 10 mg/kg, oral 10 mg/kg, 0.25 h, single rat): 2.42 nM
concentration at 0.5 h ([8]; male, Wistar, rat, plasma, po, 10 mg/kg, oral 10 mg/kg, 0.5 h, single rat): 1.51 nM
concentration at 1 h ([8]; male, Wistar, rat, plasma, po, 10 mg/kg, oral 10 mg/kg, 1 h, single rat): 2.11 nM
concentration at 2 h ([8]; male, Wistar, rat, plasma, po, 10 mg/kg, oral 10 mg/kg, 2 h, single rat): 1.76 nM
concentration at 4 h ([8]; male, Wistar, rat, plasma, po, 10 mg/kg, oral 10 mg/kg, 4 h, single rat): 0.8 nM
concentration at 8 h ([8]; male, Wistar, rat, plasma, po, 10 mg/kg, oral 10 mg/kg, single rat, * value deemed erroneous by contamination, read-out: Plasma Concentration): 1.69 nM
concentration at 0.25 h ([8]; male, Wistar, rat, plasma, po, 100 mg/kg, oral 100 mg/kg, 0.25 h, single rat): 11.7 nM
concentration at 0.5 h ([8]; male, Wistar, rat, plasma, po, 100 mg/kg, oral 100 mg/kg, 0.5 h, single rat): 14.6 nM
concentration at 1 h ([8]; male, Wistar, rat, plasma, po, 100 mg/kg, oral 100 mg/kg, 1 h, single rat): 17 nM
concentration at 2 h ([8]; male, Wistar, rat, plasma, po, 100 mg/kg, oral 100 mg/kg, 2 h, single rat): 17.2 nM
concentration at 8 h ([8]; male, Wistar, rat, plasma, po, 100 mg/kg, oral 100 mg/kg, single rat, * value deemed erroneous by contamination, read-out: Plasma Concentration): 4.57 nM
Plasma Concentration ([8]; oral 10 mg/kg, 0.25 h, single rat, 10 mg/kg): 1.71 nM
Plasma Concentration ([8]; oral 10 mg/kg, 0.5 h, single rat, 10 mg/kg): 1.90 nM
Plasma Concentration ([8]; oral 10 mg/kg, 1 h, single rat, 10 mg/kg): 2.26 nM
Plasma Concentration ([8]; oral 10 mg/kg, 2 h, single rat, 10 mg/kg): 1.51 nM
Plasma Concentration ([8]; oral 10 mg/kg, 4 h, single rat, 10 mg/kg): 1.20 nM
Plasma Concentration ([8]; oral 100 mg/kg, 0.25 h, single rat, 100 mg/kg): 6.17 nM
Plasma Concentration ([8]; oral 100 mg/kg, 0.5 h, single rat, 100 mg/kg): 11.15 nM
Plasma Concentration ([8]; oral 100 mg/kg, 1 h, single rat, 100 mg/kg): 17.43 nM
Plasma Concentration ([8]; oral 100 mg/kg, 2 h, single rat, 100 mg/kg): 11.51 nM
Plasma Concentration ([8]; oral 100 mg/kg, 4 h, single rat, 100 mg/kg): 11.52 nM and 5.75 nM
concentration at 8 h ([8]; oral 100 mg/kg, single rat, 100 mg/kg, read-out: Eye Ball Concentration): 0.40 nM

From publication PMC8235661, “Photoelectric Dye, NK-5962, as a Potential Drug for Preventing Retinal Neurons from Apoptosis: Pharmacokinetic Studies Based on Review of the Evidence” (Life, 2021)
